Results as given in ChEMBL document CHEMBL2040842, “Synthesis and Biochemical Testing of 3-(Carboxyphenylethyl)imidazo[2,1-f][1,2,4]triazines as Inhibitors of AMP Deaminase” (ACS Med Chem Lett, 2010).
pIC50, pKi: −log10 of the molar value.

Key:
[1] = Inhibition of AMP deaminase
AMP deaminase 3 = biological target: T1, AMP deaminase 3 (Homo sapiens, UniProt Q01432); experiment: Inhibition of human recombinant AMPD3-1b expressed in Sf9 cells
T1 sequence (Q01432 whole entry): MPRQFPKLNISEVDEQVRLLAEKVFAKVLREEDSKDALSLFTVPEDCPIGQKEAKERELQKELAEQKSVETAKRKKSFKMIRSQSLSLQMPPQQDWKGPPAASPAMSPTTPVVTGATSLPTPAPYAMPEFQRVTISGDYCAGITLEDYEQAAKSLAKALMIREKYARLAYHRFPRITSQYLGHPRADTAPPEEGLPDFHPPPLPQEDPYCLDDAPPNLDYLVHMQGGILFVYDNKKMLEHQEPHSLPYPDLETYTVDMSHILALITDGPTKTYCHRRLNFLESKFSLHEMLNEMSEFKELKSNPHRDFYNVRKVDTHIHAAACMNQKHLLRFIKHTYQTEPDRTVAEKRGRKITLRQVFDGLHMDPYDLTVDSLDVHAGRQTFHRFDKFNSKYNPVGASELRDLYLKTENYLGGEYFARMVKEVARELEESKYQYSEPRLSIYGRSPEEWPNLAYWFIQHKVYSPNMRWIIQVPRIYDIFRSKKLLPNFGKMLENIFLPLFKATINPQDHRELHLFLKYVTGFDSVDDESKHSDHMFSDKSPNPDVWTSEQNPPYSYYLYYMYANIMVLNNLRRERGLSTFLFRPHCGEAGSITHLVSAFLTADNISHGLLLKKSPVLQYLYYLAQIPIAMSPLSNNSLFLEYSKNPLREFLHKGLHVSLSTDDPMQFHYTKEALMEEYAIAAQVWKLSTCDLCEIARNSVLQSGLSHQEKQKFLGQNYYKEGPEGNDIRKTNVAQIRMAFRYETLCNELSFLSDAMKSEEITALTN

[2] = Inhibition of human recombinant AMPD1 deltaM54 mutant expressed in Sf9 cells
AMP deaminase = AMP deaminase (Arabidopsis thaliana, UniProt O80452, V211M); experiment: Inhibition of Arabidopsis recombinant AMPD deltaV211M mutant expressed in Sf9 cells
Chain of AMP deaminase (O80452 whole entry V211M): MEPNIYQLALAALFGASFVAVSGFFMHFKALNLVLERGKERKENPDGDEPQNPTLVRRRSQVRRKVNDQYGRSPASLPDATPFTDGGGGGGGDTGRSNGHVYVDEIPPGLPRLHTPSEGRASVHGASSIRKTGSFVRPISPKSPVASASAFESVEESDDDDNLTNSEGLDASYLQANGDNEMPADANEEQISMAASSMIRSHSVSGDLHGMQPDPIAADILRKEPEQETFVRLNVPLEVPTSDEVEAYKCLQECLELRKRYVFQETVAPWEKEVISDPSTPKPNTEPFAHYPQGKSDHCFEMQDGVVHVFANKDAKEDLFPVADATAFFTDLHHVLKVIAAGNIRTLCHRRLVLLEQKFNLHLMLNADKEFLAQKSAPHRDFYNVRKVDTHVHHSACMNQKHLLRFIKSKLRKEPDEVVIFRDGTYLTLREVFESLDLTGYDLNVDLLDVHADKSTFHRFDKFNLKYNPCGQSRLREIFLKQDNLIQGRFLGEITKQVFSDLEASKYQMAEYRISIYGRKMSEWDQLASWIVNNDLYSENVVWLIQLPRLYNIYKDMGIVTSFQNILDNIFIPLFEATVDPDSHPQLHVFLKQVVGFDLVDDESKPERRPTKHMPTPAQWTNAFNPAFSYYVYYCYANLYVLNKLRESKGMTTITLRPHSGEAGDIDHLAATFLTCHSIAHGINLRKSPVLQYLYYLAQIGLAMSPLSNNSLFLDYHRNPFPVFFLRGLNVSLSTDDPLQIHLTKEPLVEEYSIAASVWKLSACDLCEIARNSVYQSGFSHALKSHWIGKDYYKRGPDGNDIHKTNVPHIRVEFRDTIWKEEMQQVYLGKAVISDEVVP

[3] = Inhibition of human recombinant AMPD2-1A/2 expressed in Sf9 cells
AMP deaminase 1 = biological target: T2, AMP deaminase 1 (Homo sapiens, UniProt P23109); experiment: Inhibition of human skeletal muscle AMPD1; set-up: species or system Muscle tissue
T2 sequence (P23109 whole entry): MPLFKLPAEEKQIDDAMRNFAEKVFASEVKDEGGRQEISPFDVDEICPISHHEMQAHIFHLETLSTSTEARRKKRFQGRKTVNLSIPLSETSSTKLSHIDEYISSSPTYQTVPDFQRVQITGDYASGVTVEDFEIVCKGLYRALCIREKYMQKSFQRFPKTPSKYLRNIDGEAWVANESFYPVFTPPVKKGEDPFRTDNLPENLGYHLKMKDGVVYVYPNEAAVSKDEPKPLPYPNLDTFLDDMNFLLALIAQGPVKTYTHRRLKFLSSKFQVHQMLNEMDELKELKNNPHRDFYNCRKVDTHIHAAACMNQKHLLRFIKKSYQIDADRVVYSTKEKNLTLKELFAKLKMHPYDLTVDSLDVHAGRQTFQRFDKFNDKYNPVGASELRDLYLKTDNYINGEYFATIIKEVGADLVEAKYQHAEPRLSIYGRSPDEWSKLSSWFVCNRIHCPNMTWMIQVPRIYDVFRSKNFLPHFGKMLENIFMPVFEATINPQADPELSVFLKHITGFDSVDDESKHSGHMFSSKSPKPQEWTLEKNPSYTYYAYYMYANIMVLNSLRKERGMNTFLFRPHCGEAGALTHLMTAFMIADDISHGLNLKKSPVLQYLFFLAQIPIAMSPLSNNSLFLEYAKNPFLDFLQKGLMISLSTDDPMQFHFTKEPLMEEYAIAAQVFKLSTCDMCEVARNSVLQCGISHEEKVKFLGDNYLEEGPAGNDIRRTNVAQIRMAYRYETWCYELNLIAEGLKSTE

[4] = Inhibition of porcine heart AMPD3; set-up: species or system Sus scrofa

| Structure (SMILES) | pIC50 (AMP deaminase 3) | pIC50 [2] | pIC50 (AMP deaminase) | pIC50 [3] | other results |
| --- | --- | --- | --- | --- | --- |
| O=P(O)(O)OC[C@H]1O[C@@H](n2cnc3c2N=CNC[C@H]3O)[C@H](O)[C@@H]1O |  |  |  |  | pKi [1]: 11.26 |
| O=C(O)c1cccc(CCc2cnc3cncnn23)c1 | 3.43 | 3.51 | 2.85 | 4.00 |  |
| O=C(O)c1cc2c(c(CCc3cnc4cncnn34)c1)CCCC2 | 6.05 | 5.24 | 3.70 | 5.64 |  |
| O=C(O)c1cc(CCn2cnc3c2N=CNCC3O)c2c(c1Br)CCCC2 (stereo unspecified) |  |  |  |  | pIC50 (AMP deaminase 1): 6.30 |
| O=C(O)c1cccc(CCn2cnc3c2NC=NCC3O)c1 (stereo unspecified) |  |  |  |  | pKi [4]: 6.29 |
